In US20010034362A1, “Pyrrolidine derivatives for vision and memory disorders” (Guilford Pharmaceuticals Inc., priority 1998, published 2001):
Marks after values point to notes of the source that are not given here.

Assays:
[1] = system: retinal ganglion cells and optic nerve axons; experiment: In vivo retinal ganglion cell and optic nerve axon tests after optic nerve transection, 14 or 28 day treatment, sacrifice at 90 days; parameters: species or system Sprague Dawley rats; details: for RGC Counts: mean density ± SEM of Fluoro-gold labeled RGC in 400 μm × 400 μm gridfields; for ON Axon density: mean ± SEM of RT97 labeled axons in 200 μm × 200 μm region; for increased ON axon density: adjusted for optic nerve diameter; for ON axon Count: calculated by multiplying axonal density by ON area; for Proximal optic nerve myclin basic protein Density: ± SEM, 20X analysis of % areal coverage
Text: Complete transection of the optic nerve 5 mm from the eyeball produces massive degeneration of retinal ganglion cells, representing loss of >87% of the normal ganglion cell population 90 days after the injury (Table 1). Few spared fluorogold pre labeled ganglion cells are present in vehicle treated cases (large-white figures) among a population of small microglia that digest the debris of the degenerating cells and take up the fluorogold label (FIG. 3A).
90 days after transection few ganglion cell axons remain within the optic nerve (FIG. 4B), representing only 5.6% of the normal population. The loss of axons reflects both the death of retinal ganglion cells and the regression or “dying back” of the axons of ˜70% of the small surviving ganglion cell population into the retina itself (Table 1).
Myelin basic protein immunchistochemistry labels fascicles (darker labeled ‘islands’) of myelinated axons in the normal optic nerve (FIG. 6A, upper left). 90 days after transection extensive degeneration of myelin is evident in vehicle treated cases, characterized by the loss of fascicular organization and the appearance of numerous large dense degenerating myelin figures (FIG. 6B, upper right).
Complete transection of the optic nerve leads to degeneration of the distal segments (axon fragments disconnected from the ganglion cell bodies), and the degeneration of their myelin sheaths.
All eyes and optic nerves stumps were removed.

[2] = Clearance (Table V comments); type: in vitro ADME
[3] = system: retinal ganglion cell axons; experiment: Protection of retinal ganglion cell axons from degeneration following optic nerve transection (Table V); type: in vivo; details: ± SEM
Text: Efficacy of representative compounds from different immunophilin ligand series in protecing retinal gangiou cell axons from degeneration following optic nerve transection is set forth in Table V.

[4] = system: retinal ganglion cells, optic nerve axons and myelin; experiment: Retinal ischemia by raised intraocular pressure, examined 28 days after the episode; type: in vivo, adult rats
Text: Retinal ganglion cells were retrogradely labeled in adult rats by bilateral injection of fluorogold in their lateral geniculate nuclei. Labeled ganglion cells in the normal rat retina appear as white profiles against the dark background (FIG. 1A). Complete retinal ischemia was produced by infusing normal saline solution into the retinal vitreous cavity of each eye until the intraocular pressure exceeded arterial blood pressure. 28 days after the ischemic episode extensive degeneration of retinal ganglion cell was evidenced by massive reduction in the density of fluorogold labeled cells (FIG. 1B).
Optic nerves from vehicle treated cases examined 28 days after a 1 hour retinal ischemic episode are characterized by a decreased density of optic nerve axons and the appearance of numerous degenerating myelin figures (bright white filled circles).

retina = experiment: Streptozotocin induced diabetes, retinal neovascularization and neuronal loss; type: in vivo
retinal ganglion cells = experiment: Example 17: optic nerve transection, GPI-1046 for 28 days, sacrifice at 90 days; type: in vivo, Sprague Dawley rats; details: 10 mg/kg/day s.c. for 28 days
Text: Transection of the mammalian optic nerve results in a brief period of abortive regeneration, but the majority of axotomized neurons die and the axons from many persisting ganglion cells die back beyond the optic nerve head.

[5] = system: streptozotocin-induced diabetic rat; experiment: Streptozotocin-induced diabetic sensory neuropathy, hot plate and tail flick; type: in vivo, Male Wistar rats; details: lesioned animals treated for 6 weeks at 10 mg/kg s.c.
Protocol: The procedure involved using Male Wistar rats which were given a single injection of streptozotocin (65 mg/kg i.v.). Blood glucose levels were determined weekly for the first three weeks and on the last week of the experiment. Animals were evaluated weekly for signs of sensory neuropathy using the conventional hot plate and tail flick apparatus test procedures.

aged mice = experiment: Morris watermaze, spatial learning and memory in aged rodents; type: in vivo, C57BL/6N-Nia mice; details: aged impaired mice, 10 mg/kg daily, retention testing after 3 weeks of dosing
Text: The Morris watermaze is widely used for assessing spatial memory formation and retention in experimental animals. The test deoends on the animal's ability to utilize spatial visual information in order to locate a submerged escape platform in a water tank. It is important that the tank itself be as devoid of specific visual features as possible—thus, it is always circular in shape, the sides are kept smooth and in uniform dull colors, and the water is rendered opacue with nontoxic watercolour pigment or powdered milk. This is to ensure that the animal navigates only by the use of more distant visual cues, or by the use of intra-maze cues specifically provided by the experimenter. The animals' path, speed, and swim time are tracked with a ceiling camera for lacer computerized analysis. Over the course of several successive trials, spatial learning can therefore be defined as a drop of distance swum, or time elapsed, from placement in the tank until escape onto the invisible platform. The procedure involved using three-month old (young) and 18-19 month old male C57BL/6N-Nia (aged) mice which habituated to the well known and conventional Morris watermaze during a 4 trials/day, 3-4 day visible platform training phase. […] Swim Distances (cm) were analyzed in a 7×5 ANOVA including Groups and Blocks (1-5) as factors in the analysis, treating Blocks as a repeated measure.

[6] = 14 days GPI 1046, 90 days after transection
[7] = 28 days GPI 1046, 90 days after transection
[8] = 28 day treatment beginning 8 weeks after onset of streptozotocin induced diabetes

CCC(C)(C)C(=O)C(=O)N1CCC[C@H]1C(=O)OCCCc1cccnc1 [GPI 1046, 3-(3-pyridyl) -1-propyl (2s) -1-(3,3-dimethyl-1,2-dioxopentyl) -2-pyrrolidinecarboxylate]
RGC Counts ([1]; 14 days GPI 1046 10 mg/kg/day sc, 90 days after transection): small but not significant increase
% RGCs Rescued [1, 6]: 5.3%
% surviving RGCs with ON axons [1, 6]: 33.6%
ON head area (% sham) [1, 6]: 76%
Spared RGC population [1, 6]: 20,275
ON Axon density [1, 6]: 569 ± 23
increased ON axon density ([1]; 14 days GPI 1046): 1.5X
ON axon Count ([1]; 14 days GPI 1046): 6820
Distal optic nerve stump shrinkage ([1]; 14 days GPI 1046, cross sectional area compared to sham control): did not protect against shrinkage of the distal stump
Distal optic nerve myclin base protein Density, loss ([1]; 14 days GPI 1046, cross sectional area multiplied by myelin density): slightly increase the density of myelin
Proximal optic nerve myclin basic protein Density ([1]; 14 days GPI 1046): 1.6 ± 3.0 SEM % recovery
RGC Counts ([1]; 28 days GPI 1046 10 mg/kg/day sc, 90 days after transection): 67.9 ± 5.8
% surviving RGCs with ON axons [1, 7]: 81.4%
ON head area (% sham) [1, 7]: 95%*
Spared RGC population [1, 7]: 28,096*
ON Axon density [1, 7]: significant increase in the density of large, and particularly medium and small caliber optic nerve axons
increased ON axon density ([1]; 28 days GPI 1046): 5.0X
ON axon Count ([1]; 28 days GPI 1046): 22,861*
Distal optic nerve stump, less shrinkage ([1]; 28 days GPI 1046, cross sectional area compared to sham control): prevented cross sectional shrinkage
Proximal optic nerve myclin basic protein Density ([1]; 28 days GPI 1046): 70 ± 6.3 SEM % recovery
protection of optic nerve axons ([1]; first 14 days GPI 1046, proximal stump, 90 days after transection): 5.3%
Clearance [2]: 63.8 µL/min
RT97 + RGC axon density 14 days after ON transection (% ON axons rescued) [3]: 60.5% ± 3.9 SEM
protection of retinal ganglion cells (fluorogold labeled cell density) ([4]; 10 mg/kg s.c. 1 hour prior to ischemia and 10 mg/kg/day for next four days, 28 days after ischemia): noticeable protection of a large proportion of the vulnerable ganglion cell population
density of degenerating myelin figures ([4]; 28 days after 1 hour retinal ischemic episode): dramatically decreased
protection of optic nerve axons from ischemic degeneration ([4]; 28 days after 1 hour retinal ischemic episode, toluidine blue staining): protected the majority of optic nerve axons from degeneration
loss of neurons in the INL and GCL (retina; 28 day treatment beginning 8 weeks after onset of diabetes, compared to streptozotocin/vehicle controls): appeared to decrease the loss of neurons in both the INL and GCL
neovascularization in the PR, ONL, OPL and INL (retina; [8]): reduced neovascularization
neuronal loss in the ONL (retina; [8]): did not appear to protect against neuronal loss in the ONL
ganglion cell population spared (perikaryal neuroprotection) (retinal ganglion cells; 90 days after transection): 25%
preservation of axons in the proximal stump of the transected nerve (retinal ganglion cells; RT97 neurofilament immunohistochemistry): preserved the axons of virtually ali croteczed neurons
hot plate and tail flick latency [5]: improvement in latency
spatial memory performance (swim distance, retention testing) (aged mice): significantly enhanced spatial memory performance
